Patent US8759300B2, “Polypeptides and methods of use” (The Research Foundation for the State University of New York, priority 2007, dated 2014)
One block for each sequence: values may come before it. No end group written: not given here.

Assays:
[1] = system: TGF-β1 binding to intact human plasma FN; experiment: Inhibition of I125 TGF-β1 binding to immobilized FN by growth factor peptide; conditions: increasing concentrations of peptide; 25° C., 2 hours
Procedure: (§1) FIG. 9. Inhibition of TGF-β1 and PDGF-BB binding to intact human plasma FN with TGF-β1 and PDGF-BB FN-binding peptides, respectively. FN was adsorbed onto tissue culture plastic at a concentration of 0.125 μM and then excess protein-binding sites of the plastic blocked with 2% bovine serum albumin. Growth factor labeled with I^125 was incubated with FN-coated plates at 25° C. for 2 hours in the presence or absence of peptide. Data was calculated as [(GF binding in presence of peptide−background)/(GF binding in absence of peptide-background)]×100. n=3.
(§2) Two of these synthetic peptides (homologous to TGF-β1 and homologous to PDGF-BB) inhibit TGF-β1 and PDGF-BB binding to FN respectively (FIG. 9). Inhibition of TGF-β1 and PDGF-BB binding to intact human plasma FN was determined as follows. FN was adsorbed onto tissue culture plastic at a concentration of 0.125 μM and then excess protein-binding sites of the plastic blocked with 2% bovine serum albumin. Growth factor labeled with I^125 was incubated with FN-coated plates at 25° C. for 2 hours in the presence or absence of peptide. For example, relative binding of TGF-β1 to immobilized FN was determined for increasing concentrations of the synthetic peptide homologous to TGF-β1. […] For example, relative binding of PDGF-BB to immobilized FN was determined for increasing concentrations of the synthetic peptide homologous to PDGF-BB. […]

[2] = system: PDGF-BB binding to intact human plasma FN; experiment: Inhibition of I125 PDGF-BB binding to immobilized FN by growth factor peptide; conditions: increasing concentrations of peptide; 25° C., 2 hours
Procedure: as §1, §2

AHDF cells = experiment: AHDF proliferation response to PDGF-BB, XTT assay; type: cell-based, human; conditions: 30 ng/mL PDGF-BB, 1 week
Procedure: FIG. 7. […] AHDF cells were cultured at 4,000 cells/well in uncoated 96-well plates. Cells were incubated in DMEM for 4 hrs, and then further incubated in DMEM, 2% BSA, 30 ng/mL PDGF-BB with and without Peptide 5 (P5) at 37° C. for 1 week. Proliferation was estimated by the XTT assay (Promega) according to the manufacturer's instructions (mean±SD, n=4).

FN-null cells = experiment: FN-null cell assay, peptides added directly to medium on FNIII8-11; type: cell-based, mouse; conditions: peptide added directly to media with or without PDGF-BB
Procedure: FIG. 6. FN-null fibroblast response to soluble, unconjugated P5 (SEQ ID NO:37). FN-null cells were cultured at 4,000 cells/well in 96 well plates precoated with 0.125 mM of FNIII8-11 in DMEM for 4 hrs, and then further incubated in DMEM+2% BSA with or without the indicated concentrations of Peptide 5 at 37° C. for 3 days. Cells were counted in three 10× fields in each of 4 wells (mean±SD, n−12).
Scrambled variants of peptides 1 and 5 had no activity in these assays.
Variants of peptide 5 derived from fibronectin were generated by removing one amino acid at a time from the N-terminus or C-terminus of Peptide 5 (Table 2). These peptides (P12-P24) were added directly to medium with or without PDGF-BB.

Chain of PDGF-BB binding to intact human plasma FN (P02751 610-812 limits assumed): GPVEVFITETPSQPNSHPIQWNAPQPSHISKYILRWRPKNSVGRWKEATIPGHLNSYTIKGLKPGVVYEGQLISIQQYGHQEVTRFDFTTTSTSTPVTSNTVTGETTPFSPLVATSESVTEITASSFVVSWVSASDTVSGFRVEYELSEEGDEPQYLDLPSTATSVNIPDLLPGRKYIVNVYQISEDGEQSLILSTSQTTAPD
Chain of PDGF-BB binding to intact human plasma FN (P02751 1815-2080 limits assumed): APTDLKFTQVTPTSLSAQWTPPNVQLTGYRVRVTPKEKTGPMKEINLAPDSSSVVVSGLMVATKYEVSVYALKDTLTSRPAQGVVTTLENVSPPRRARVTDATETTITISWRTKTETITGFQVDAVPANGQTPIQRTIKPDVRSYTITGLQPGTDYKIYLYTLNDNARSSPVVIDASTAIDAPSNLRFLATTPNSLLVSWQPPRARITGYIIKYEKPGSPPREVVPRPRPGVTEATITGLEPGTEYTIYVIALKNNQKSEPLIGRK
Chain of TGF-β1 binding to intact human plasma FN (P02751 610-812 limits assumed): as the sequence (P02751 610-812 limits assumed) above
Chain of TGF-β1 binding to intact human plasma FN (P02751 1815-2080 limits assumed): as the sequence (P02751 1815-2080 limits assumed) above

Proportion of full-length TGF-β1 bound to immobilized FN [1]: decreased with increasing concentration
Sequence: CCVRQLYIDFRKDLG [synthetic peptide homologous to TGF-β1]

Proportion of full-length PDGF-BB bound to immobilized FN [2]: decreased with increasing concentration
Sequence: CKTRTEVFEISRRLI [synthetic peptide homologous to PDGF-BB]

Sequence: QPSHISKYILRWRPK [P5, QPSHISKYILRWRPK]
AHDF proliferation response to PDGF-BB (AHDF cells): enhanced AHDF proliferation response to PDGF-BB
FN null cell survival and proliferation (FN-null cells): supported FN null cell survival and proliferation
